# According to PubChem BioAssay (NCI):
#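 Growth conditions: 96-well plates. Treatment: test compound, 48 hours, 5 concentrations. Analysis: linear interpolation between bracketing concentrations; unreached endpoints set to highest concentration. Here, GI50 denotes the concentration required for 50% inhibition of growth. TGI marks complete inhibition of growth.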
# Assays:
# Test in all cases: inhibition of tumour cell growth, NCI panel, 48 h
# 786-0 renal = system: 786-0 renal
# A498 renal = system: A498 renal
# A549 NSCLC = system: A549 NSCLC
# ACHN renal = system: ACHN renal
# BT-549 breast = system: BT-549 breast
# CAKI-1 renal = system: CAKI-1 renal
# CCRF-CEM leukemia = system: CCRF-CEM leukemia
# COLO 205 colon = system: COLO 205 colon
# DU-145 prostate = system: DU-145 prostate
# EKVX NSCLC = system: EKVX NSCLC
# HCC-2998 colon = system: HCC-2998 colon
# HCT-116 colon = system: HCT-116 colon
# HCT-15 colon = system: HCT-15 colon
# HL-60(TB) leukemia = system: HL-60(TB) leukemia
# HOP-62 NSCLC = system: HOP-62 NSCLC
# HOP-92 NSCLC = system: HOP-92 NSCLC
# HS 578T breast = system: HS 578T breast
# HT29 colon = system: HT29 colon
# IGROV1 ovarian = system: IGROV1 ovarian
# K-562 leukemia = system: K-562 leukemia
# KM12 colon = system: KM12 colon
# LOX IMVI melanoma = system: LOX IMVI melanoma
# M14 melanoma = system: M14 melanoma
# MALME-3M melanoma = system: MALME-3M melanoma
# MCF7 breast = system: MCF7 breast
# MDA-MB-231 breast = system: MDA-MB-231 breast
# MDA-MB-435 = system: MDA-MB-435
# MOLT-4 leukemia = system: MOLT-4 leukemia
# NCI-H226 lung = system: NCI-H226 lung
# NCI-H23 lung = system: NCI-H23 lung
# NCI-H522 lung = system: NCI-H522 lung
# NCI/ADR-RES ovarian = system: NCI/ADR-RES ovarian
# OVCAR-3 ovarian = system: OVCAR-3 ovarian
# OVCAR-4 ovarian = system: OVCAR-4 ovarian
# OVCAR-5 ovarian = system: OVCAR-5 ovarian
# OVCAR-8 ovarian = system: OVCAR-8 ovarian
# PC-3 prostate = system: PC-3 prostate
# RPMI-8226 leukemia = system: RPMI-8226 leukemia
# RXF 393 renal = system: RXF 393 renal
# SF-268 CNS = system: SF-268 CNS
# SF-295 CNS = system: SF-295 CNS
# SF-539 CNS = system: SF-539 CNS
# SK-MEL-2 melanoma = system: SK-MEL-2 melanoma
# SK-MEL-28 melanoma = system: SK-MEL-28 melanoma
# SK-MEL-5 melanoma = system: SK-MEL-5 melanoma
# SK-OV-3 ovarian = system: SK-OV-3 ovarian
# SN12C renal = system: SN12C renal
# SNB-19 CNS = system: SNB-19 CNS
# SNB-75 CNS = system: SNB-75 CNS
# SR leukemia = system: SR leukemia
# SW-620 colon = system: SW-620 colon
# T-47D breast = system: T-47D breast
# TK-10 renal = system: TK-10 renal
# U251 CNS = system: U251 CNS
# UACC-257 melanoma = system: UACC-257 melanoma
# UACC-62 melanoma = system: UACC-62 melanoma
# UO-31 renal = system: UO-31 renal
compound,measurement,setting,value
COc1cccc2c1C(=O)c1c(O)c3c(c(O)c1C2=O)C[C@@](O)(C(C)=O)C[C@@H]3O[C@H]1C[C@H](N)[C@H](O)[C@H](C)O1,GI50,786-0 renal,68.5 nM
same,TGI,786-0 renal,517 nM
same,TGI,A498 renal,896 nM
same,GI50,A549 NSCLC,42.7 nM
same,TGI,A549 NSCLC,201 nM
same,GI50,ACHN renal,45.2 nM
same,TGI,ACHN renal,395 nM
same,GI50,BT-549 breast,153 nM
same,TGI,BT-549 breast,924 nM
same,GI50,CAKI-1 renal,229 nM
same,TGI,CAKI-1 renal,1530 nM
same,GI50,CCRF-CEM leukemia,22.8 nM
same,TGI,CCRF-CEM leukemia,293 nM
same,GI50,COLO 205 colon,52.4 nM
same,TGI,COLO 205 colon,655 nM
same,GI50,DU-145 prostate,68.7 nM
same,TGI,DU-145 prostate,340 nM
same,GI50,EKVX NSCLC,360 nM
same,TGI,EKVX NSCLC,2630 nM
same,GI50,HCC-2998 colon,99.2 nM
same,TGI,HCC-2998 colon,475 nM
same,GI50,HCT-116 colon,28.6 nM
same,TGI,HCT-116 colon,216 nM
same,TGI,HCT-15 colon,5690 nM
same,GI50,HL-60(TB) leukemia,31.2 nM
same,TGI,HL-60(TB) leukemia,358 nM
same,GI50,HOP-62 NSCLC,53 nM
same,TGI,HOP-62 NSCLC,263 nM
same,GI50,HOP-92 NSCLC,29.6 nM
same,TGI,HOP-92 NSCLC,276 nM
same,GI50,HS 578T breast,120 nM
same,TGI,HS 578T breast,1820 nM
same,GI50,HT29 colon,50.7 nM
same,TGI,HT29 colon,337 nM
same,GI50,IGROV1 ovarian,60.9 nM
same,TGI,IGROV1 ovarian,2580 nM
same,GI50,K-562 leukemia,51.3 nM
same,TGI,K-562 leukemia,868 nM
same,GI50,KM12 colon,96 nM
same,TGI,KM12 colon,497 nM
same,TGI,LOX IMVI melanoma,107 nM
same,GI50,M14 melanoma,118 nM
same,TGI,M14 melanoma,653 nM
same,TGI,MALME-3M melanoma,235 nM
same,GI50,MCF7 breast,19.5 nM
same,TGI,MCF7 breast,2040 nM
same,GI50,MDA-MB-231 breast,201 nM
same,TGI,MDA-MB-231 breast,2750 nM
same,GI50,MDA-MB-435,137 nM
same,TGI,MDA-MB-435,672 nM
same,GI50,MOLT-4 leukemia,16.5 nM
same,TGI,MOLT-4 leukemia,117 nM
same,GI50,NCI-H226 lung,53.2 nM
same,TGI,NCI-H226 lung,119 nM
same,GI50,NCI-H23 lung,59.4 nM
same,TGI,NCI-H23 lung,262 nM
same,GI50,NCI-H522 lung,36.2 nM
same,TGI,NCI-H522 lung,163 nM
same,GI50,NCI/ADR-RES ovarian,1230 nM
same,TGI,NCI/ADR-RES ovarian,9040 nM
same,GI50,OVCAR-3 ovarian,125 nM
same,TGI,OVCAR-3 ovarian,777 nM
same,GI50,OVCAR-4 ovarian,128 nM
same,TGI,OVCAR-4 ovarian,1060 nM
same,GI50,OVCAR-5 ovarian,155 nM
same,TGI,OVCAR-5 ovarian,2260 nM
same,GI50,OVCAR-8 ovarian,41.6 nM
same,TGI,OVCAR-8 ovarian,1090 nM
same,GI50,PC-3 prostate,108 nM
same,TGI,PC-3 prostate,975 nM
same,GI50,RPMI-8226 leukemia,90.2 nM
same,TGI,RPMI-8226 leukemia,327 nM
same,GI50,RXF 393 renal,92.4 nM
same,TGI,RXF 393 renal,341 nM
same,GI50,SF-268 CNS,54.8 nM
same,TGI,SF-268 CNS,585 nM
same,GI50,SF-295 CNS,42.8 nM
same,TGI,SF-295 CNS,245 nM
same,TGI,SF-539 CNS,546 nM
same,GI50,SK-MEL-2 melanoma,158 nM
same,TGI,SK-MEL-2 melanoma,506 nM
same,GI50,SK-MEL-28 melanoma,132 nM
same,TGI,SK-MEL-28 melanoma,680 nM
same,GI50,SK-MEL-5 melanoma,48.8 nM
same,TGI,SK-MEL-5 melanoma,143 nM
same,GI50,SK-OV-3 ovarian,88.7 nM
same,TGI,SK-OV-3 ovarian,1320 nM
same,GI50,SN12C renal,41.6 nM
same,TGI,SN12C renal,451 nM
same,GI50,SNB-19 CNS,36.1 nM
same,TGI,SNB-19 CNS,1350 nM
same,GI50,SNB-75 CNS,39.1 nM
same,TGI,SNB-75 CNS,359 nM
same,GI50,SR leukemia,7.24 nM
same,TGI,SR leukemia,188 nM
same,GI50,SW-620 colon,35.5 nM
same,TGI,SW-620 colon,855 nM
same,GI50,T-47D breast,40.8 nM
same,TGI,T-47D breast,312 nM
same,GI50,TK-10 renal,93.6 nM
same,TGI,TK-10 renal,793 nM
same,GI50,U251 CNS,38.1 nM
same,TGI,U251 CNS,217 nM
same,TGI,UACC-257 melanoma,426 nM
same,GI50,UACC-62 melanoma,59.8 nM
same,TGI,UACC-62 melanoma,205 nM
same,GI50,UO-31 renal,175 nM
same,TGI,UO-31 renal,1260 nM
